US20230348459A1, “PYRROLIDINE COMPOUND AND USE THEREOF” (SIMCERE PHARMACEUTICAL CO., LTD., priority 2020, published 2023)
Read-outs that look alike come from different tables or passages of the source.

Columns and labels:
[1] = Blood-brain barrier (BBB) permeability in rats; assay type: in vivo, SD rats; settings: for Kp at 2 h / concentration at 2 h: rat, female SD rats, 100 mg/kg QD, 2 h after administration; for Kp at 2 h: brain/plasma, read-out: B/P ratio
Method: Six female SD rats (200-300 g, 6-8 weeks) were randomized into 2 groups, 3 rats/group. Each rat was given the compounds of the present invention, and the vehicle was 0.5% methylcellulose aqueous solution. Animals were fed with water as usual and fasted overnight before the experiment, and feeding was resumed four hours after administration. Plasma and brain tissue were collected from rats of each group 2 h after administration. The whole blood sample collected was placed in a K2EDTA anticoagulation tube and centrifuged for 5 min (12,000 rpm, 4° C.) and then the plasma was taken for later detection. After tissue collection, the tissue was dried with filter paper, and the samples were stored in a -80° C. freezer for later detection.
10 µL of the rat plasma sample was taken and 150 µL of acetonitrile solvent (wherein an internal standard compound was contained) was added to precipitate proteins. After the mixture was vortexed for 5 min, centrifugation (14,000 rpm) was performed for 5 min. The supernatant was diluted 2-fold with water containing 0.1% (v/v) FA and injected into the LC-MS/MS system (AB Sciex Triple Quad 6500+) for the quantitative detection. For the 10x diluted samples, 2 µL of the sample was taken and 18 µL of blank plasma was added. After the mixture was vortexed for 0.5 min, 300 µL of acetonitrile solvent (wherein an internal standard compound was contained) was added to precipitate proteins. The other processing steps were identical to those for the samples not diluted. A calibration standard curve was prepared in SD rat plasma along with plasma quality control samples to determine the plasma concentration.
Brain tissue samples from rat were first homogenized with 4 times the mass volume of PBS homogenate. 20 µL of brain tissue homogenate sample was taken, and 20 µL of blank mouse plasma was added. The mixture was diluted and mixed uniformly, and 600 µL of acetonitrile solvent (wherein an internal standard compound was contained) was added to precipitate proteins. After the mixture was vortexed for 5 min, centrifugation (14,000 rpm) was performed for 5 min. The supernatant was diluted 2-fold with water containing 0.1% (v/v) FA and injected into the LC-MS/MS system (AB Sciex Triple Quad 6500+) for the quantitative detection.

MCF-7 subcutaneous tumor = test: Growth inhibition in MCF-7 subcutaneous tumor model in mice; assay type: in vivo, NPG mice; settings: for TGI: 3 weeks; for Average tumor volume Day 0: Day 0 (grouping); for Effect on body weight of mice: at the doses tried
Method: Cell inoculation: 0.1 ml/(containing 1 × 10^7) MCF-7 cell suspension (volume ratio of D-PBS : Matrigel = 1 : 1) was inoculated subcutaneously on the right back of each mouse, and the mice were inoculated subcutaneously with 17β-estradiol tablets four days before the cell inoculation.
Administration: The compound # Example 1 was administered at a dose of 1, 3, or 10 mg/kg, orally (PO), once daily (QD) for 3 weeks. The compound # Example 2 was administered at a dose of 10 mg/kg, orally (PO), once daily (QD) for 3 weeks. 8 mice were in the vehicle group and 6 mice were in the administration group.
The diameter of the tumor was measured with vernier calipers twice weekly. The calculation formula of tumor volume was V = 0.5a × b^2, wherein a and b represented the long and short diameters of the tumor, respectively. The body weights of the mice were weighed twice weekly.
The tumor-inhibiting efficacy of the compound was evaluated using tumor growth inhibition (TGI) (%).

MCF-7 intracranial tumor = test: Growth inhibition in MCF-7 intracranial tumor model in mice; settings: 30 mg/kg PO once daily
Method: Animal information: NPG mice (female, 6-8 weeks, body weight: about 17-29 g) were purchased from Beijing Vitalstar Biotechnology Co., Ltd. The mice were fed in SPF environment and each cage position was individually ventilated.
Cell culture: The human breast cancer MCF-7 cell line was cultured in vitro in EMEM (cell culture medium) supplemented with 10% fetal bovine serum, 1% Pen Strep and 10 µg/ml recombinant human insulin in a 37° C., 5% CO2 incubator. Conventional digestion treatment with 0.25% trypsin-EDTA digestion solution was carried out twice weekly for passage. When the cell saturation was 80%-90%, and the number reached the requirement, the cells were collected and counted.
Cell inoculation: 15 µl/(containing 2 × 10^6) MCF-7 cell suspension was inoculated into the brain of mice using a stereotaxic apparatus, a micro-injection pump and a miniature handheld cranial drill, and the mice were subcutaneously inoculated with 17β-estradiol tablets three days before the cell inoculation. On day 8 after cell inoculation, the mice were randomized into groups for administration according to the body weight thereof, and the day of grouping was Day 0.
11 mice were in the vehicle group and 8 mice were in the administration group. Mice in all groups were continuously administered until the mice died, which were euthanized due to poor state or the end of the experiment.
The body weight of the mice was measured twice weekly, and the survival status of the mice was observed.
At the end of the experiment on Day 48, all mice were euthanized.

[2] = brain, read-out: Drug concentration in brain
[3] = plasma, read-out: Drug concentration in plasma

SMILES | Kp at 2 h [1] | concentration at 2 h [1, 2] [ng/g] | concentration at 2 h [1, 3] [µg/mL] | TGI (MCF-7 subcutaneous tumor; 10 mg/kg PO QD) [%] | Average tumor volume Day 0 (MCF-7 subcutaneous tumor; 10 mg/kg PO QD) [mm^3] | Average tumor volume Day 21 (MCF-7 subcutaneous tumor; 10 mg/kg PO QD) [mm^3] | Effect on body weight of mice (MCF-7 subcutaneous tumor) | Blood-brain barrier permeability (in words) ([1]; rats) | TGI (MCF-7 subcutaneous tumor; 1 mg/kg PO QD) [%] | Average tumor volume Day 0 (MCF-7 subcutaneous tumor; 1 mg/kg PO QD) [mm^3] | Average tumor volume Day 21 (MCF-7 subcutaneous tumor; 1 mg/kg PO QD) [mm^3] | TGI (MCF-7 subcutaneous tumor; 3 mg/kg PO QD) [%] | Average tumor volume Day 0 (MCF-7 subcutaneous tumor; 3 mg/kg PO QD) [mm^3] | Average tumor volume Day 21 (MCF-7 subcutaneous tumor; 3 mg/kg PO QD) [mm^3] | Tumor shrinkage (in words) (MCF-7 subcutaneous tumor; doses of 3 mg/kg and 10 mg/kg) | Effect on tumor growth (in words) (MCF-7 subcutaneous tumor; orally once daily at 1 mg/kg, 3 mg/kg or 10 mg/kg, P < 0.01) | Deaths in group (MCF-7 intracranial tumor; until Day 48) | Survival period vs solvent control or Fulvestrant (MCF-7 intracranial tumor; P < 0.01)
C[C@@H]1Cc2c([nH]c3ccccc23)C(c2c(F)cc(N[C@H]3CCN(CCCF)C3)cc2F)N1CC(F)(F)CO (stereo in doubt) [Example 7, 3-((1S,3R)-1-(2,6-difluoro-4-(((S)-1-(3-fluoropropyl)pyrrolidin-3-yl)amino)phenyl)-3-methyl-3,4-dihydro-1H-pyridino [3,4-b]indole-2(9H)-yl)-2,2-difluoropropane-1-ol] | 0.28 | 703 | 2.54 | 140.09 | 170 | 80 | do not significantly affect the body weight | – | – | – | – | – | – | – | – | – | – | –
C[C@@H]1Cc2c([nH]c3ccccc23)[C@@H](c2ccc(N[C@H]3CCN(CCCF)C3)cn2)N1CC(F)(F)F [Example 3, N-((S)-1-(3-fluoropropyl)pyrrolidin-3-yl)-6-((1S,3R)-3-methyl-2-(2,2,2-trifluoroethyl)-2,3,4,9-tetrahydro-1H-pyridino[3,4-b]indol-1-yl)pyridine-3-amine] | 4.2 | 10600 | 2.62 | 138.17 | 177 | 91 | do not significantly affect the body weight | excellent blood-brain barrier permeability | 89.08 | 183 | 207 | 114.71 | 169 | 136 | shows an effect of shrinking tumor | significant inhibitory effects | No death case occurred | significantly prolonged
